Experiment: mn = molality of the nth substance listed, in mol/kg
Conditions: 74.66 kPa, Liquid; for speed of sound: Frequency=3 MHz, Sing-around technique in a fixed-path interferometer; for mass density: Vibrating tube method

CCCC[N+](CCCC)(C(C)CC)C(C)CC.[Br-] (stereo not given) [N-butyl-N,N-bis(1-methylpropyl)-1-butanaminium bromide] + O
Conditions	mass density, 278.15 K [kg/m3]	mass density, 283.15 K [kg/m3]	mass density, 288.15 K [kg/m3]	mass density, 293.15 K [kg/m3]	speed of sound, 278.15 K [m/s]	speed of sound, 283.15 K [m/s]	speed of sound, 288.15 K [m/s]	speed of sound, 293.15 K [m/s]	speed of sound, 298.15 K [m/s]
m1 = 0.01181	1000.58	1000.3	999.698	998.799	1431.4	1452	1470.2	1486.2	1500.2
m1 = 0.02026	1001.03	1000.75	1000.13	999.231	1433.3	1453.8	1472	1488	1502.1
m1 = 0.03102	1001.6	1001.32	1000.7	999.791	1435.8	1456.1	1474.1	1489.9	1503.9
m1 = 0.04017	1002.1	1001.81	1001.19	1000.28	1438.2	1458.3	1476	1491.6	1505.3
m1 = 0.05043	1002.66	1002.36	1001.73	1000.81	1440	1459.8	1477.4	1492.9	1506.4
m1 = 0.0598	1003.17	1002.87	1002.24	1001.32	1442.6	1462.2	1479.5	1494.8	1508.4
m1 = 0.06968	1003.71	1003.41	1002.76	1001.84	1445	1464.4	1481.6	1496.6	1509.9
m1 = 0.08191	1004.37	1004.06	1003.42	1002.5	1447.4	1466.7	1483.7	1498.7	1511.8
m1 = 0.09038	1004.85	1004.53	1003.89	1002.96	1450.6	1469.6	1486.4	1501.1	1514
m1 = 0.1036	1005.56	1005.25	1004.59	1003.66	1453.5	1472.2	1488.9	1503.7	1516.5

From the NIST ThermoML archive (doi:10.1016/j.jct.2015.03.017)
